{
  "source": "patent US20230381178A1",
  "about": "“METHODS FOR IMPROVING RENAL FUNCTION WITH A COMBINATION OF A BET BROMODOMAIN INHIBITOR AND A SODIUM DEPENDENT GLUCOSE TRANSPORT 2 INHIBITOR” (Resverlogix Corp., priority 2020, published 2023)",
  "key": {"[1]": {"experiment": "BETonMACE Phase 3 trial post-hoc analysis: eGFR (Cockcroft-Gault, serum creatinine) from baseline to last visit on treatment", "format": "in vivo, human", "experimental": "Apabetalone (RVX-208) was evaluated in a recently completed clinical Phase 3 trial (BETonMACE; NCT02586155) for the effect on MACE in type 2 diabetes patients with low HDL cholesterol (below 40 mg/dL for males and below 45 mg/dL for females) and a recent acute coronary syndrome (ACS) (preceding 7-90 days). All patients received high intensity statin treatment or maximum tolerated statin treatment, which was 20-40 mg daily or a maximum daily dose of 40 mg for rosuvastatin or 40-80 mg daily or a maximum daily dose of 80 mg for atorvastatin.\nPatients (n=2425) with ACS in the preceding 7 to 90 days, with type 2 diabetes and low HDL cholesterol (≤40 mg/dl for men, <45 mg/dl for women), receiving intensive or maximum-tolerated therapy with atorvastatin or rosuvastatin, were assigned in double-blind fashion to receive apabetalone 100 mg orally twice daily or matching placebo. Baseline characteristics include female sex (25%), myocardial infarction as index ACS event(74%), coronary revascularization for index ACS (76%), treatment with dual anti-platelet therapy (87%) and renin-angiotensin system inhibitors (91%), median LDL cholesterol 65 mg per deciliter, and median HbA1c 7.3%. The primary efficacy measure is time to first occurrence of cardiovascular death, non-fatal myocardial infarction, or stroke. The study enrolled 2425 patients and the MACE outcome population consisted of 2418 patients.\nIn the BETonMACE clinical study, a total of N=298 patients (N=150 in RVX-208 treatment group and N=148 in placebo treatment group) were administered an SGLT2 inhibitor (empagliflozin, dapagliflozin, or canagliflozin) in addition to RVX-208 with specified statin therapy (atorvastatin and rosuvastatin) and other guideline-defined treatments. Specifically, a total of 150 patients received both RVX-208 and an SGLT2 inhibitor; a total of 148 received an SGLT2 inhibitor, but no RVX-208; a total of 1062 received RVX-208, but no SGLT2 inhibitor; a total of 1058 received neither RVX-208 or an SGLT2 inhibitor.\nPatients who were randomized and received at least one dose of SGLT2 treatment while actively receiving study drug (RVX-208 or placebo) were counted as those receiving a combination of SGLT2 treatment with either RVX-208 or placebo. Patients receiving more than one drug therapy within the SGLT2 inhibitor class were counted only once based upon whichever drug therapy patients continued taking at the end of treatment with study drug (RVX-208 or placebo). In cases where patients were receiving more than one drug therapy within the SGLT2 inhibitor class at the end of treatment with study drug, whichever SGLT2 inhibitor therapy was received for longer was counted.\nEstimated glomerular filtration rate (eGFR) was calculated by the central lab using serum creatinine values and the Cockcroft-Gault formula. Serum creatinine was collected as part of the chemistry panel at the following time points: baseline, week 24, week 52, week 76, week 100, and last visit on treatment (LVT). The Cockcroft-Gault formula requires the input of an individual's age, sex, and weight. The last visit on treatment (LVT) timepoint represented the longest study exposure duration for patients receiving RVX-208 or placebo with and without SGLT2 inhibitors and is the focus of this analysis. The median time to LVT (and study drug exposure) for patients with a baseline and LVT measurements for eGFR administered an SGLT2 inhibitor (N=298) was 742 days (2.03 years). For the patients treated with a SGLT2 inhibitor and RVX-208 (N=150), the median time to LVT was 748 days (2.05 years) and for the patients treated with a SGLT2 inhibitor and received placebo (N=148), the median time to LVT was 734 days (2.01 years). No statistical difference was observed between the duration of study drug exposure, indicating a balance was observed between treatment groups. At the LVT timepoint, a total of N=121 patients in the apabetalone treatment group and N=122 patients in the placebo group had eGFR measurements. […]"}, "[2]": {"settings": "BETonMACE, T2DM patients with a recent ACS (Ray et al. 2020); cited from earlier work"}, "[3]": {"settings": "patients with established cardiovascular disease and eGFR<60 mL/min/1.73 m^2; monotherapy; p=0.04 vs. baseline (Kulikowski et al 2017); cited from earlier work"}},
  "data": [
    {"smiles": "COc1cc(OC)c2c(=O)[nH]c(-c3cc(C)c(OCCO)c(C)c3)nc2c1", "note": "[RVX-208, 2-(4-(2-hydroxyethoxy)-3,5-dimethylphenyl)-5,7-dimethoxyquinazolin-4(3H)-one]", "values": [
      {"measurement": "effect on eGFR / renal function", "setting": "[1]; BETonMACE post-hoc, T2DM patients with a recent ACS", "value": "not able to increase median or mean eGFR levels"},
      {"measurement": "median eGFR at last visit on treatment (LVT)", "setting": "[1]; T2DM patients with recent ACS, on statin, RVX-208 100 mg orally twice daily where given, at LVT (median about 2 years)", "value": 96, "unit": "mL/min"},
      {"measurement": "median eGFR at baseline", "setting": "[1]; T2DM patients with recent ACS, on statin, at baseline", "value": 97, "unit": "mL/min"},
      {"measurement": "median change of eGFR from baseline to LVT", "setting": "[1]; T2DM patients with recent ACS, FIG. 3", "value": "−3.2", "unit": "mL/min/1.73 m^2"},
      {"measurement": "mean change of eGFR from baseline to LVT", "setting": "[1]; T2DM patients with recent ACS, FIG. 4", "value": "−3.3", "unit": "mL/min/1.73 m^2"},
      {"measurement": "median eGFR slope from baseline to LVT", "setting": "[1]; eGFR difference baseline to LVT divided by number of treatment days, monotherapy groups", "value": "−0.004"},
      {"measurement": "effect on eGFR versus placebo", "setting": "[2]", "value": "did not demonstrate the ability to statistically improve eGFR versus placebo"},
      {"measurement": "increase in eGFR", "setting": "[3]", "value": 3.4, "unit": "%"}
    ]}
  ]
}
